Laboratory results as given in ChEMBL document CHEMBL1201862, “PubChem BioAssay data set” (2004).
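In this assay, cells in 96-well plates receive the compound at five concentrations for 48 hours. Endpoints are linearly interpolated between the surrounding concentrations. Here, GI50 denotes the concentration required for 50% inhibition of growth.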 Calls of active or inactive are those of the source. Rule as the data show it: active = GI50 up to about 1.1 µM and inactive = higher.

How the values were obtained:
Assay in all cases: NCI anticancer screen, dose series, 48 h
CCRF-CEM = test system: CCRF-CEM
HCC 2998 = test system: HCC 2998
HOP-92 = test system: HOP-92
IGROV-1 = test system: IGROV-1
K562 = test system: K562
KM12 = test system: KM12
NCI-H226 = test system: NCI-H226
SF-295 = test system: SF-295
SK-MEL-28 = test system: SK-MEL-28
SK-MEL-5 = test system: SK-MEL-5
SK-OV-3 = test system: SK-OV-3
SN12C = test system: SN12C
SNB-19 = test system: SNB-19
SR = test system: SR
UACC-62 = test system: UACC-62
DU-145 = test system: DU-145
MDA-MB-435 = test system: MDA-MB-435
MDA-N = test system: MDA-N
NCI/ADR-RES = test system: NCI/ADR-RES

Measured: GI50

O=C1c2cccc3cc([N+](=O)[O-])cc(c23)C(=O)N1NC1=NCCN1
inactive: CCRF-CEM > 100 µM | HCC 2998 > 100 µM | HOP-92 > 100 µM | IGROV-1 > 100 µM | K562 > 100 µM | KM12 > 100 µM | NCI-H226 > 100 µM | SF-295 > 100 µM | SK-MEL-28 > 100 µM | SK-MEL-5 > 100 µM | SK-OV-3 > 100 µM | SN12C > 100 µM | SNB-19 > 100 µM | SR > 100 µM | UACC-62 > 100 µM

C=CCOCCCCC(C(C)=O)C(=O)OC (stereo not given)
inactive: CCRF-CEM > 100 µM | DU-145 > 100 µM | HCC 2998 > 100 µM | HOP-92 54.8 µM | IGROV-1 > 100 µM | K562 > 100 µM | KM12 > 100 µM | NCI-H226 > 100 µM | SF-295 > 100 µM | SK-MEL-28 > 100 µM | SK-MEL-5 > 100 µM | SK-OV-3 > 100 µM | SN12C > 100 µM | SNB-19 > 100 µM | SR > 100 µM | UACC-62 > 100 µM

COc1cc(C2SC(C)C(=O)N2c2ccc(-c3csc(NS(=O)(=O)c4ccc(Cl)c(OC)c4)n3)cc2)ccc1O (stereo not given)
inactive: CCRF-CEM 14.6 µM | DU-145 > 100 µM | HOP-92 24.4 µM | IGROV-1 44.9 µM | K562 34 µM | KM12 22.5 µM | MDA-MB-435 > 100 µM | MDA-N 41.2 µM | NCI-H226 > 100 µM | NCI/ADR-RES > 100 µM | SF-295 > 100 µM | SK-MEL-28 > 100 µM | SK-MEL-5 > 100 µM | SK-OV-3 > 100 µM | SN12C 20.6 µM | SNB-19 > 100 µM | SR 23.9 µM | UACC-62 25.4 µM

Cc1ccc(NC(=O)C2C3C=CC(O3)C2C(=O)O)cc1 (stereo not given)
inactive: CCRF-CEM 83.9 µM | HCC 2998 > 100 µM | HOP-92 > 100 µM | IGROV-1 > 100 µM | K562 > 100 µM | NCI-H226 > 100 µM | SF-295 > 100 µM | SK-MEL-28 > 100 µM | SK-MEL-5 > 100 µM | SK-OV-3 > 100 µM | SN12C > 100 µM | SNB-19 > 100 µM | SR > 100 µM | UACC-62 > 100 µM

O=C1c2ccccc2C(=O)c2sc(Nc3ccc(Cl)c(Cl)c3)nc21
inactive: CCRF-CEM 1.85 µM | DU-145 18.8 µM | HCC 2998 15.3 µM | HOP-92 13.3 µM | IGROV-1 3.82 µM | K562 3.21 µM | KM12 7.83 µM | NCI-H226 1.48 µM | SF-295 15.2 µM | SK-MEL-28 7.35 µM | SK-MEL-5 2.32 µM | SK-OV-3 18 µM | SN12C 1.83 µM | SNB-19 6.04 µM | SR 2.52 µM | UACC-62 2.59 µM

c1ccc(CCN2CCc3[nH]c4ccccc4c3C2)cc1
inactive: CCRF-CEM 32.6 µM | DU-145 > 100 µM | HCC 2998 16.3 µM | HOP-92 11.9 µM | IGROV-1 23.9 µM | K562 16.9 µM | KM12 17.3 µM | MDA-MB-435 17.4 µM | NCI-H226 29.8 µM | NCI/ADR-RES 20.3 µM | SF-295 15.1 µM | SK-MEL-28 20 µM | SK-MEL-5 16.5 µM | SK-OV-3 35.8 µM | SN12C 27.9 µM | SNB-19 20.8 µM | SR 27.9 µM | UACC-62 > 10 µM

N=C(N)SCc1ccc(N=C=S)cc1
inactive: CCRF-CEM 6.93 µM | DU-145 15.9 µM | HCC 2998 16.6 µM | HOP-92 11.7 µM | IGROV-1 12.9 µM | K562 11.7 µM | KM12 14.3 µM | MDA-MB-435 13.1 µM | MDA-N 13.7 µM | NCI-H226 15.6 µM | NCI/ADR-RES 16.9 µM | SF-295 17.1 µM | SK-MEL-28 14.6 µM | SK-MEL-5 14 µM | SK-OV-3 17.3 µM | SN12C 14.5 µM | SNB-19 13.8 µM | SR 17.6 µM | UACC-62 11.4 µM

O=[N+]([O-])c1ccccc1[S+]([O-])c1ccccc1 (stereo not given)
inactive: CCRF-CEM 47.8 µM | HCC 2998 97.7 µM | HOP-92 71 µM | IGROV-1 68.2 µM | K562 35.1 µM | KM12 87.9 µM | NCI-H226 49.9 µM | SF-295 90.8 µM | SK-MEL-28 > 100 µM | SK-MEL-5 36.8 µM | SK-OV-3 > 100 µM | SN12C 75.5 µM | SNB-19 87.3 µM | SR 71.8 µM | UACC-62 > 100 µM

CC(C)C(=O)Nc1nc2[nH]cnc2c(=O)[nH]1
inactive: CCRF-CEM > 100 µM | HCC 2998 > 100 µM | HOP-92 > 100 µM | IGROV-1 > 100 µM | K562 > 100 µM | KM12 > 100 µM | NCI-H226 > 100 µM | SF-295 > 100 µM | SK-MEL-28 > 100 µM | SK-MEL-5 > 100 µM | SK-OV-3 > 100 µM | SN12C > 100 µM | SNB-19 > 100 µM | SR > 100 µM | UACC-62 > 100 µM

COC(=O)c1cc2c(nc1C)-c1ccccc1OS2(=O)=O
inactive: CCRF-CEM > 100 µM | HCC 2998 > 100 µM | HOP-92 24.6 µM | IGROV-1 > 100 µM | K562 > 100 µM | KM12 > 100 µM | NCI-H226 > 100 µM | SF-295 43.1 µM | SK-MEL-5 > 100 µM | SK-OV-3 > 100 µM | SN12C > 100 µM | SNB-19 81.3 µM | SR > 100 µM | UACC-62 > 100 µM

Cc1ccc(/N=C2\SC(=NN(C)C)S\C2=N/c2ccc(C)cc2)cc1
inactive: CCRF-CEM > 100 µM | DU-145 > 100 µM | HCC 2998 > 100 µM | HOP-92 > 100 µM | IGROV-1 > 100 µM | K562 > 100 µM | KM12 > 100 µM | MDA-MB-435 > 100 µM | MDA-N > 100 µM | NCI-H226 > 100 µM | NCI/ADR-RES > 100 µM | SF-295 > 100 µM | SK-MEL-28 > 100 µM | SK-MEL-5 > 100 µM | SK-OV-3 > 100 µM | SN12C > 100 µM | SNB-19 > 100 µM | SR > 100 µM | UACC-62 > 100 µM

C/C(CCn1[nH]c(=O)ccc1=O)=N\Nc1ccc([N+](=O)[O-])cc1[N+](=O)[O-]
inactive: CCRF-CEM > 100 µM | HCC 2998 > 100 µM | HOP-92 > 100 µM | IGROV-1 > 100 µM | K562 20.6 µM | KM12 33.5 µM | NCI-H226 > 100 µM | SF-295 20.5 µM | SK-MEL-28 > 100 µM | SK-MEL-5 41.8 µM | SN12C > 100 µM | SNB-19 > 100 µM | SR > 100 µM | UACC-62 5.9 µM

COc1ccc(-c2nc3cc(C(F)(F)F)ccc3n2CC2CCCN3CCCCC23)cc1 (stereo not given)
inactive: CCRF-CEM 13.6 µM | DU-145 17.1 µM | HCC 2998 12.1 µM | HOP-92 14.8 µM | IGROV-1 13.9 µM | K562 14.8 µM | KM12 19.4 µM | MDA-MB-435 15.8 µM | MDA-N 19.3 µM | NCI-H226 16.5 µM | NCI/ADR-RES 14.1 µM | SF-295 19.2 µM | SK-MEL-28 14.9 µM | SK-MEL-5 14.4 µM | SK-OV-3 17.7 µM | SR 13.3 µM

CC(C)(C)c1cc(-c2c3nc(c(-c4cc(C(C)(C)C)cc(C(C)(C)C)c4)c4ccc([nH]4)c(-c4cc(C(C)(C)C)cc(C(C)(C)C)c4)c4nc(c(-c5cc(C(C)(C)C)cc(C(C)(C)C)c5)c5ccc2[nH]5)C=C4)C=C3)cc(C(C)(C)C)c1
inactive: CCRF-CEM > 100 µM | HCC 2998 > 100 µM | HOP-92 > 100 µM | IGROV-1 > 100 µM | K562 > 100 µM | KM12 > 100 µM | NCI-H226 > 100 µM | SF-295 > 100 µM | SK-MEL-28 > 100 µM | SK-MEL-5 > 100 µM | SK-OV-3 > 100 µM | SN12C > 100 µM | SNB-19 > 100 µM | SR > 100 µM | UACC-62 > 100 µM

N=C(CSSCC(=N)NCC12CC3CC(CC(C3)C1)C2)NCC12CC3CC(CC(C3)C1)C2
inactive: DU-145 16.9 µM | HOP-92 16.3 µM | IGROV-1 15.9 µM | K562 11.4 µM | KM12 14.1 µM | MDA-MB-435 13.8 µM | NCI-H226 20.9 µM | NCI/ADR-RES 17.1 µM | SF-295 14.2 µM | SK-MEL-28 20.7 µM | SK-MEL-5 20.2 µM | SK-OV-3 17 µM | SN12C 15.7 µM | SNB-19 19.2 µM | UACC-62 13.3 µM

CN1CCC(=O)/C(=C/c2ccccc2)C1
inactive: CCRF-CEM 8.93 µM | HCC 2998 10.9 µM | HOP-92 17.5 µM | IGROV-1 16 µM | K562 5.24 µM | KM12 2.23 µM | NCI-H226 16.8 µM | SF-295 15.4 µM | SK-MEL-28 18.2 µM | SK-MEL-5 17.9 µM | SK-OV-3 20.2 µM | SN12C 14.7 µM | SNB-19 17.1 µM | SR 2.91 µM | UACC-62 21.9 µM

Cc1ccc(S(=O)(=O)NC(=O)Nc2cccc(S(N)(=O)=O)c2)cc1
inactive: DU-145 > 100 µM | HCC 2998 > 100 µM | HOP-92 > 100 µM | IGROV-1 > 100 µM | K562 > 100 µM | KM12 > 100 µM | MDA-MB-435 > 100 µM | NCI-H226 > 100 µM | NCI/ADR-RES > 100 µM | SF-295 > 100 µM | SK-MEL-28 > 100 µM | SK-MEL-5 > 100 µM | SK-OV-3 > 100 µM | SNB-19 > 100 µM | SR > 100 µM | UACC-62 > 100 µM
